Experimental data: US11814367B2, “Inhibitors of glycogen synthase 1 (GYS1) and methods of use thereof” (Maze Therapeutics, Inc., priority 2021, dated 2023)

What was measured:
[1] = molecular target: hGYS2 enzyme (recombinant hGYS2/GN1 protein) (Homo sapiens (Human), UniProt P54840); assay: GYS2 coupled enzyme assay (PK/LDH); type: biochemical; settings: geometric mean of at least 2 assay runs on separate days, read-out: Avg_IC50
How it was run: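 Recombinant hGYS2/GN1 (200 nM) with 2 mM UDP-glucose, 0.2% rabbit liver glycogen, 2 mM glucose-6-phosphate; UDP coupled via PK/LDH (2 mM PEP, 0.6 mM NADH). Buffer 50 mM Tris pH 7.5, 2 mM MgCl2, 100 mM KCl, 2.5% DMSO. A340 slope over 10 min; IC50 from Hill fit of duplicates.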

[2] = molecular target: hGYS1 enzyme (recombinant hGYS1/GN1 protein) (Homo sapiens (Human), UniProt P13807); assay: GYS1 coupled enzyme assay (PK/LDH); type: biochemical; settings: hGYS1/GN1 50 nM, UDP-Glucose 0.8 mM, G6P 1 mM; geometric mean of at least 2 runs
Sequence of hGYS1 enzyme (recombinant hGYS1/GN1 protein) (P13807 whole entry): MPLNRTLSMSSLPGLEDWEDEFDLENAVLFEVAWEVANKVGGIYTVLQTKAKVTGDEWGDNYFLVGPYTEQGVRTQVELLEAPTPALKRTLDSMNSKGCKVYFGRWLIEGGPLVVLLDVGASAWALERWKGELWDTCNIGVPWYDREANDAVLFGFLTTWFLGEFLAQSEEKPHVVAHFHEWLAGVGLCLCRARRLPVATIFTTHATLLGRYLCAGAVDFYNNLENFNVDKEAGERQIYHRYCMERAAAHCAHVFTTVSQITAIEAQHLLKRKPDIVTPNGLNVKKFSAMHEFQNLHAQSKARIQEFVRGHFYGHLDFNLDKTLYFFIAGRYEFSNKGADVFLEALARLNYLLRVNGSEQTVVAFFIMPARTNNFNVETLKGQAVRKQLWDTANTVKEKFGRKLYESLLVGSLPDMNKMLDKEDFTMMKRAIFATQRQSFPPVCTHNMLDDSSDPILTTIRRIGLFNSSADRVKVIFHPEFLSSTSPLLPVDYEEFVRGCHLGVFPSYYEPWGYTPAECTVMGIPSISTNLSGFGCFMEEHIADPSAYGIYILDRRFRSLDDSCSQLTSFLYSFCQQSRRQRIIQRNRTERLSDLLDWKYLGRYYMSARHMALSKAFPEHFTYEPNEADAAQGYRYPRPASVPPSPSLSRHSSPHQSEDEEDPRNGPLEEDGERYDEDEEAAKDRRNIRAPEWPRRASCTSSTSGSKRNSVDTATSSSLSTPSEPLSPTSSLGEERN
Sequence of hGYS1 enzyme (recombinant hGYS1/GN1 protein) (P46976 whole entry partner): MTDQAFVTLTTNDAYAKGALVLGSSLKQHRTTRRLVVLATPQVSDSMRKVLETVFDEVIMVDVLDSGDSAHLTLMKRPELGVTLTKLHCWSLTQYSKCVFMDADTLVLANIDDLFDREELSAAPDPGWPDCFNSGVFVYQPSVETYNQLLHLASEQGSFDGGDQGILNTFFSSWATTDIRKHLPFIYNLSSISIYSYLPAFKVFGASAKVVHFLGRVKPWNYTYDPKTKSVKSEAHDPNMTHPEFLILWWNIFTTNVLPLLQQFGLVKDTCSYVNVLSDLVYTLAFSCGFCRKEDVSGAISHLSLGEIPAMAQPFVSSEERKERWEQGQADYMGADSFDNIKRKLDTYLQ

Sequence of hGYS2 enzyme (recombinant hGYS2/GN1 protein) (P54840 whole entry): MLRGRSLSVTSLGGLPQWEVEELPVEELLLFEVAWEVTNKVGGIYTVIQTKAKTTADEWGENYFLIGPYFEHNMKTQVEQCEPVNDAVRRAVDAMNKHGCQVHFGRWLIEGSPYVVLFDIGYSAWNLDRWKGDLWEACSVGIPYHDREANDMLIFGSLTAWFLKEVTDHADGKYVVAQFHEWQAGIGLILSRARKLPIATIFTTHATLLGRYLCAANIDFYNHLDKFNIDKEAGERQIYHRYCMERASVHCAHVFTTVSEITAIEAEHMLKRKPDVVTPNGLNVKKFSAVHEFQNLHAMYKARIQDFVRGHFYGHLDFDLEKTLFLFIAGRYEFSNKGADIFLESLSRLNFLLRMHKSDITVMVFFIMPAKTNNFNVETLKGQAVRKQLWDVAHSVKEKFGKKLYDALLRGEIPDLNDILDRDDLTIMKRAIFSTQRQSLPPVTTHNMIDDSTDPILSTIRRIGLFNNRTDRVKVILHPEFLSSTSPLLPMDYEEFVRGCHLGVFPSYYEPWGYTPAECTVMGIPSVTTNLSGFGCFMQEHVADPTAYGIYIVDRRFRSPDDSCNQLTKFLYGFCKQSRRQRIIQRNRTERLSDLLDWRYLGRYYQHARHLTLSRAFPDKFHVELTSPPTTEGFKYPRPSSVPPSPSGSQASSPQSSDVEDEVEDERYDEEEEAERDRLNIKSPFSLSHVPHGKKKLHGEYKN
Sequence of hGYS2 enzyme (recombinant hGYS2/GN1 protein) (P46976 whole entry partner): as the sequence (P46976 whole entry partner) above

Structure (SMILES) | IC50 [1] [nM] | IC50 [2] [nM]
CC(C)c1ccc([C@@H](NC(=O)[C@@H]2C[C@@H](F)CN2C(=O)Cc2nnn[nH]2)c2ccccc2)cc1F [Compound 328, (2S,4R)-4-fluoro-N-[(S)-[3-fluoro-4-(propan-2-yl)phenyl](phenyl)methyl]-1-[2-(1H-1,2,3,4-tetrazol-5-yl)acetyl]pyrrolidine-2-carboxamide] | > 100000 | 16
CC(C)c1ccc([C@@H](NC(=O)[C@@H]2C[C@@H](F)CN2C(=O)CNC(=O)N2CC(F)(F)C2)c2ccccc2)nc1 [Compound 290, (2S,4R)-1-{2-[(3,3-difluoroazetidine-1-carbonyl]amino]acetyl}-4-fluoro-N-[(S)-phenyl[5-(propan-2-yl)pyridin-2-yl]methyl]pyrrolidine-2-carboxamide] | > 100000 | 56
O=C(N[C@@H](c1ccccc1)c1ccc(C2CC2)c(F)c1)[C@@H]1C[C@@H](F)CN1C(=O)Cc1nnn[nH]1 [Compound 430, (2S,4R)-N-[(S)-(4-cyclopropyl-3-fluorophenyl)(phenyl)methyl]-4-fluoro-1-[2-(1H-1,2,3,4-tetrazol-5-yl)acetyl]pyrrolidine-2-carboxamide] | > 100000 | 191
CC(C)c1ccc([C@@H](NC(=O)[C@@H]2C[C@@H](F)CN2C(=O)CCn2nc3ccccn3c2=O)c2ccccc2)nc1 [Compound 289, (2S,4R)-4-fluoro-1-(3-{3-oxo-2H,3H-[1,2,4]triazolo[4,3-a]pyridin-2-yl}propanoyl)-N-[(S)-phenyl[5-(propan-2-yl)pyridin-2-yl]methyl]pyrrolidine-2-carboxamide] | > 100000 | 56
CC(=O)N1[C@@H](C)CC[C@H]1C(=O)N[C@@H](c1ccccc1)c1ccc(C(C)C)cc1 [Compound 214, (2S,5S)-1-acetyl-5-methyl-N-[(S)-phenyl[4-(propan-2-yl)phenyl]methyl]pyrrolidine-2-carboxamide] | > 100000 | 853
CC(C)c1ccc([C@@H](NC(=O)[C@@H]2C[C@@H](F)CN2C(=O)C2CCNC(=O)C2)c2ccccc2)cc1 (stereo partly drawn) [Compound 93, (2S,4R)-4-fluoro-1-(2-oxopiperidin-4-carbonyl)-N-[(S)-phenyl[4-(propan-2-yl)phenyl]methyl]pyrrolidine-2-carboxamide] | > 100000 | 108
CC(C)c1ccc([C@@H](NC(=O)[C@@H]2C[C@@H](F)CN2C(=O)Cc2ccncn2)c2ccccc2)cc1F [Compound 346, (2S,4R)-4-fluoro-N-[(S)-[3-fluoro-4-(propan-2-yl)phenyl](phenyl)methyl]-1-[2-(pyrimidin-4-yl)acetyl]pyrrolidine-2-carboxamide] | > 100000 | 24
CC(C)c1ccc([C@@H](NC(=O)[C@@H]2C[C@@H](F)CN2C(=O)CNC(=O)N2CC(C(F)(F)F)C2)c2ccccc2)nc1 [Compound 291, (2S,4R)-4-fluoro-N-[(S)-phenyl[5-(propan-2-yl)pyridin-2-yl]methyl]-1-(2-{[3-(trifluoromethyl)azetidin-1-carbonyl]amino}acetyl) pyrrolidine-2-carboxamide] | > 100000 | 53
COc1ccc(CC(=O)N2C[C@H](F)C[C@H]2C(=O)N[C@@H](c2ccccc2)c2ccc(C(C)C)cc2)c(C#N)c1 [Compound 133, (2S,4R)-1-[2-(2-cyano-4-methoxyphenyl)acetyl]-4-fluoro-N-[(S)-phenyl[4-(propan-2-yl)phenyl]methyl]pyrrolidine-2-carboxamide] | > 100000 | 10
CC(C)c1ccc([C@@H](NC(=O)[C@@H]2C[C@@H](F)CN2C(=O)CNC(=O)C(F)(F)F)c2ccccc2)cc1 [Compound 187, (2S,4R)-4-fluoro-N-[(S)-phenyl[4-(propan-2-yl)phenyl]methyl]-1-[2-(2,2,2-trifluoroacetamido)acetyl] pyrrolidine-2-carboxamide] | > 100000 | 73
Cc1nnc(CC(=O)N2C[C@H](F)C[C@H]2C(=O)N[C@@H](c2ccccc2)c2ccc(C3CC3)c(F)c2)[nH]1 [Compound 434, (2S,4R)-N-[(S)-(4-cyclopropyl-3-fluorophenyl)(phenyl)methyl]-4-fluoro-1-[2-(5-methyl-4H-1,2,4-triazol-3-yl)acetyl]pyrrolidine-2-carboxamide] | > 100000 | 109
CC(C)c1ccc([C@@H](NC(=O)[C@@H]2C[C@@H](F)CN2C(=O)CNC(=O)N(C)C)c2ccccc2)cc1 [Compound 67, (2S,4R)-1-{2-[(dimethylcarbamoyl)amino]acetyl}-4-fluoro-N-[(S)-phenyl[4-(propan-2-yl)phenyl]methyl]pyrrolidine-2-carboxamide] | > 100000 | 10

Now from value to compound:

IC50 [1] [nM] | IC50 [2] [nM] | Structure (SMILES)
> 100000 | 129 | CC(C)c1ccc([C@@H](NC(=O)[C@@H]2C[C@@H](F)CN2C(=O)CS(C)(=O)=O)c2ccccc2)cc1 [Compound 14, (2S,4R)-4-fluoro-1-(2-methanesulfonylacetyl)-N-[(S)-phenyl[4-(propan-2-yl)phenyl]methyl]pyrrolidine-2-carboxamide]
> 100000 | 20 | CC(C)c1ccc([C@@H](NC(=O)[C@@H]2C[C@@H](F)CN2C(=O)Cc2ccc3ncnn3c2)c2ccccc2)cc1 [Compound 118, (2S,4R)-4-fluoro-N-[(S)-phenyl[4-(propan-2-yl)phenyl]methyl]-1-(2-{[1,2,4]triazolo[1,5-a]pyridin-6-yl}acetyl)pyrrolidine-2-carboxamide]
> 100000 | 188 | CC(C)c1ccc([C@@H](NC(=O)[C@@H]2C[C@@H](F)CN2C(=O)CCc2cncnc2)c2ccccc2)cc1 [Compound 60, (2S,4R)-4-fluoro-N-[(S)-phenyl[4-(propan-2-yl)phenyl]methyl]-1-[3-(pyrimidin-5-yl)propanoyl]pyrrolidine-2-carboxamide]
> 100000 | 147 | CC(C)c1ccc([C@@H](NC(=O)[C@@H]2C[C@@H](F)CN2C(=O)CCC#N)c2ccccc2)cc1 [Compound 13, (2S,4R)-1-(3-cyanopropanoyl)-4-fluoro-N-[(S)-phenyl[4-(propan-2-yl)phenyl]methyl]pyrrolidine-2-carboxamide]
> 100000 | 43 | Cc1ccn(CC(=O)N2C[C@H](F)C[C@H]2C(=O)N[C@@H](c2ccccc2)c2ccc(C(C)C)cc2)n1 [Compound 55, (2S,4R)-4-fluoro-1-[2-(3-methyl-1H-pyrazol-1-yl)acetyl]-N-[(S)-phenyl[4-(propan-2-yl)phenyl]methyl]pyrrolidine-2-carboxamide]
> 100000 | 25 | Cc1n[nH]c(CC(=O)N2C[C@H](F)C[C@H]2C(=O)N[C@@H](c2ccccc2)c2ccc(C(C)C)cc2)n1 [Compound 232, (2S,4R)-4-fluoro-1-[2-(3-methyl-1H-1,2,4-triazol-5-yl)acetyl]-N-[(S)-phenyl[4-(propan-2-yl)phenyl]methyl]pyrrolidine-2-carboxamide]
> 100000 | 105 | CC(C)c1ccc([C@@H](NC(=O)[C@@H]2C[C@@H](F)CN2C(=O)Cc2ccon2)c2ccccc2)cc1 [Compound 231, (2S,4R)-4-fluoro-1-[2-(1,2-oxazol-3-yl)acetyl]-N-[(S)-phenyl[4-(propan-2-yl)phenyl]methyl]pyrrolidine-2-carboxamide]
> 100000 | 7 | CC(C)c1ccc([C@@H](NC(=O)[C@@H]2C[C@@H](F)CN2C(=O)Cc2cccc3ncccc23)c2ccccc2)cc1 [Compound 130, (2S,4R)-4-fluoro-N-[(S)-phenyl[4-(propan-2-yl)phenyl]methyl]-1-[2-(quinolin-5-yl)acetyl]pyrrolidine-2-carboxamide]
> 100000 | 33 | Cc1ccc(CCC(=O)N2C[C@H](F)C[C@H]2C(=O)N[C@@H](c2ccccc2)c2ccc(C(C)C)cc2)c(C)n1 [Compound 110, (2S,4R)-1-[3-(2,6-dimethylpyridin-3-yl)propanoyl]-4-fluoro-N-[(S)-phenyl[4-(propan-2-yl)phenyl]methyl]pyrrolidine-2-carboxamide]
> 100000 | 41 | CC(C)c1ccc([C@@H](NC(=O)[C@@H]2C[C@@H](F)CN2C(=O)CCc2c[nH]c3ccccc23)c2ccccc2)cc1 [Compound 109, (2S,4R)-4-fluoro-1-[3-(1H-indol-3-yl)propanoyl]-N-[(S)-phenyl[4-(propan-2-yl)phenyl]methyl]pyrrolidine-2-carboxamide]
> 100000 | 244 | CC(Cc1ccncc1)C(=O)N1C[C@H](F)C[C@H]1C(=O)N[C@@H](c1ccccc1)c1ccc(C(C)C)cc1 (stereo partly drawn) [Compound 98, (2S,4R)-4-fluoro-1-[2-methyl-3-(pyridin-4-yl)propanoyl]-N-[(S)-phenyl[4-(propan-2-yl)phenyl]methyl]pyrrolidine-2-carboxamide]
> 100000 | 15 | Cc1cc(CC(=O)N2C[C@H](F)C[C@H]2C(=O)N[C@@H](c2ccccc2)c2ccc(C(C)C)cc2)nn1C [Compound 83, (2S,4R)-1-[2-(1,5-dimethyl-1H-pyrazol-3-yl)acetyl]-4-fluoro-N-[(S)-phenyl[4-(propan-2-yl)phenyl]methyl]pyrrolidine-2-carboxamide]
> 100000 | 50 | CC(C)c1ccc([C@@H](NC(=O)[C@@H]2C[C@@H](F)CN2C(=O)C(C)n2cnnn2)c2ccccc2)cc1 (stereo partly drawn) [Compound 24, (2S,4R)-4-fluoro-N-[(S)-phenyl[4-(propan-2-yl)phenyl]methyl]-1-[2-(1H-1,2,3,4-tetrazol-1-yl)propanoyl]pyrrolidine-2-carboxamide]
> 100000 | 220 | CC(=O)NCCC(=O)N1C[C@H](F)C[C@H]1C(=O)N[C@@H](c1ccccc1)c1ccc(C(C)C)cc1 [Compound 190, (2S,4R)-1-(3-acetamidopropanoyl)-4-fluoro-N-[(S)-phenyl[4-(propan-2-yl)phenyl]methyl]pyrrolidine-2-carboxamide]
